Results from ChEMBL document CHEMBL4196226, “5-HT2C Receptor Agonists for the Treatment of Obesity” (ACS Med Chem Lett, 2018).
The source made the active and inactive calls. No cut-off for these calls is given here.

Species on record: Rattus norvegicus
Experiment: Antiobesity activity in Sprague-Dawley rat assessed as reduction in cumulative food intake
Assay type: functional, organism-based

In the case of `FC(F)(F)CCc1ccnc2c1CC[C@@H]1CNCCN21`, the Activity is reported as “Active”.
